Read-outs that look alike come from different tables or passages of the source.
Legend:
[1] = test system: L-type channels (α1C+α2δ+β1b); experiment: Selectivity patch clamp, L-type channels transiently expressed in HEK 293 cells; format: cell-based; conditions: N-type vs L-type
Method: (§1) Antagonist activity was measured using whole cell patch recordings on human embryonic kidney cells either stably or transiently expressing rat α1B+α2δ+β1b channels (N-type channels) with 5 mM barium as a charge carrier. P/Q-type channels (α1A+α2δ+β1b cDNA subunits) and L-type channels (α1C+α2δ+β1b cDNA subunits) were also transiently expressed in HEK 293 cells.
(§2) After an incubation period of from 24 to 72 hrs the culture medium was removed and replaced with external recording solution (see below). Whole cell patch clamp experiments were performed using an Axopatch 200B amplifier (Axon Instruments, Burlingame, Calif.) linked to an IBM compatible personal computer equipped with pCLAMP software. Borosilicate glass patch pipettes (Sutter Instrument Co., Novato, Calif.) were polished (Microforge, Narishige, Japan) to a resistance of about 4 MΩ when filled with cesium methanesulfonate internal solution (composition in MM: 109 CsCH3 SO4, 4 MgCl2, 9 EGTA, 9 HEPES, pH 7.2). Cells were bathed in 5 mM Ba^++ (in mM: 5 BaCl2, 1 MgCl2, 10 HEPES, 40 tetraethylammonium chloride, 10 glucose, 87.5 CsCl pH 7.2). Current data shown were elicited by a train of 100 ms test pulses at 0.066 Hz from −100 mV and/or −80 mV to various potentials (min. −20 mV, max. +30 mV). Drugs were perfused directly into the vicinity of the cells using a microperfusion system. […]

[2] = target: T1, rat brain N-type calcium channel subunits (α1B+α2δ+β1b) (Rattus norvegicus, UniProt Q02294); experiment: N-type calcium channel block, whole cell patch clamp in HEK 293 cells; format: cell-based; conditions: holding −80 mV to +10 mV, 5 mM Ba
T1 construct: expressed in transfected cells; host or cells: HEK 293
Method: as §1
For transient expression, host cells, such as human embryonic kidney cells, HEK 293 (ATCC# CRL 1573) were grown in standard DMEM medium supplemented with 2 mM glutamine and 10% fetal bovine serum. HEK 293 cells were transfected by a standard calcium-phosphate-DNA coprecipitation method using the rat α1B+β1b+α2δ N-type calcium channel subunits in a vertebrate expression vector (for example, see Current Protocols in Molecular Biology).
After an incubation period of from 24 to 72 hrs the culture medium was removed and replaced with external recording solution (see below). Whole cell patch clamp experiments were performed using an Axopatch 200B amplifier (Axon Instruments, Burlingame, Calif.) linked to an IBM compatible personal computer equipped with pCLAMP software. Borosilicate glass patch pipettes (Sutter Instrument Co., Novato, Calif.) were polished (Microforge, Narishige, Japan) to a resistance of about 4 MΩ when filled with cesium methanesulfonate internal solution (composition in MM: 109 CsCH3 SO4, 4 MgCl2, 9 EGTA, 9 HEPES, pH 7.2). Cells were bathed in 5 mM Ba^++ (in mM: 5 BaCl2, 1 MgCl2, 10 HEPES, 40 tetraethylammonium chloride, 10 glucose, 87.5 CsCl pH 7.2). […] Drugs were perfused directly into the vicinity of the cells using a microperfusion system.
Normalized dose-response curves were fit (Sigmaplot 4.0, SPSS Inc., Chicago, Ill.) by the Hill equation to determine IC50 values. Steady-state inactivation curves were plotted as the normalized test pulse amplitude following 5 s inactivating prepulses at +10 mV increments. Inactivation curves were fit (Sigmaplot 4.0) with the Boltzman equation, Ipeak (normalized)=1/(1+exp((V−Vh)z/25.6)), where V and Vh are the conditioning and half inactivation potentials, respectively, and z is the slope factor.
N-type calcium channel blocking activity was assayed in human embryonic kidney cells, HEK 293, stably transfected with the rat brain N-type calcium channel subunits (α1B+α2δ+β1b cDNA subunits). Alternatively, N-type calcium channels (α1B+α2δ+β1b cDNA subunits), L-type channels (α1C+α2δ+β1b cDNA subunits) and P/Q-type channels (α1A+α2δ+β1b cDNA subunits) were transiently expressed in HEK 293 cells. Briefly, cells were cultured in Dulbecco's modified eagle medium (DMEM) supplemented with 10% fetal bovine serum, 200 U/ml penicillin and 0.2 mg/ml streptomycin at 37° C. with 5% CO2. At 85% confluency cells were split with 0.25% trypsin/1 mM EDTA and plated at 10% confluency on glass coverslips. At 12 hours the medium was replaced and the cells transiently transfected using a standard calcium phosphate protocol and the appropriate calcium channel cDNA's. Fresh DMEM was supplied and the cells transferred to 28° C./5% CO2. Cells were incubated for 1 to 2 days to whole cell recording.
Whole cell patch clamp experiments were performed using an Axopatch 200B amplifier (Axon Instruments, Burlingame, Calif.) linked to a personal computer equipped with pCLAMP software. The external and internal recording solutions contained, respectively, 5 mM BaCl2, […], 10 mM HEPES, 40 mM TEACl, 10 mM glucose, 87.5 mM CsCl (pH 7.2) and 108 mM CsMS, 4 mM MgCl2, 9 mM EGTA, 9 mM HEPES (pH 7.2). Currents were typically elicited from a holding potential of −80 mV to +10 mV using Clampex software (Axon Instruments).

[3] = target: T2, human α1G T-type channels (Homo sapiens, UniProt O43497); experiment: Block of α1G T-type channels, whole-cell patch clamp in HEK cells; format: cell-based
T2 construct: expressed in transfected cells
Method: Standard patch-clamp techniques were employed to identify blockers of T-type currents. Briefly, previously described HEK cell lines stably expressing human α1G T-type channels were used for all the recordings (passage #: 4-20, 37° C., 5% CO2). To obtain T-type currents, plastic dishes containing semi-confluent cells were positioned on the stage of a ZEISS AXIOVERT S100 microscope after replacing the culture medium with external solution (see below). Whole-cell patches were obtained using pipettes (borosilicate glass with filament, O.D.: 1.5 mm, I.D.: 0.86 mm, 10 cm length), fabricated on a SUTTER P-97 puller with resistance values of ˜5 MΩ (see below for internal solution).
In the non-inactivating protocol, the holding potential is set at −110 mV and with a pre-pulse at −100 mV for 1 second prior to the test pulse at −40 mV for 50 ms. […]
Test compounds were dissolved in external solution, 0.1-0.01% DMSO. After ˜10 min rest, they were applied by gravity close to the cell using a WPI microfil tubing. The “non-inactivated” pre-pulse was used to examine the resting block of a compound. The “inactivated” protocol was employed to study voltage-dependent block. However, the initial data shown below were mainly obtained using the non-inactivated protocol only. IC50 values are shown for various compounds of the invention in Table 6.

[4] = test system: P/Q-type channels (α1A+α2δ+β1b); experiment: Selectivity patch clamp, P/Q-type channels transiently expressed in HEK 293 cells; format: cell-based; conditions: N-type vs P/Q-type
Method: as §1, §2

rat formalin model = experiment: Formalin-induced pain model (paw flinches); format: in vivo; conditions: 30 mg/kg IP, 10 min before formalin, saline control=100%
Method: The effects of intrathecally delivered compounds of the invention on the rat formalin model were measured. The compounds were reconstituted to stock solutions of approximately 10 mg/ml in propylene glycol. Eight Holtzman male rats of 275-375 g size were randomly selected per test article.
The following study groups were used, with test article, vehicle control (propylene glycol) and saline delivered intraperitoneally (IP):
Prior to initiation of drug delivery baseline behavioral and testing data were taken.
On the morning of testing, a small metal band (0.5 g) was loosely placed around the right hind paw. The rat was placed in a cylindrical Plexiglas chamber for adaptation a minimum of 30 minutes. Test Article or Vehicle Control Article was administered 10 minutes prior to formalin injection (50 μl of 5% formalin) into the dorsal surface of the right hindpaw of the rat. The animal was then placed into the chamber of the automated formalin apparatus where movement of the formalin injected paw was monitored and the number of paw flinches tallied by minute over the next 60 minutes (Malmberg, A. B., et al., Anesthesiology (1993) 79:270-281).
Results are presented as Maximum Possible Effect±SEM, where saline control=100%.

[5] = low frequency stimulation 0.067 Hz (tonic block), read-out: IC50 at 0.067 Hz
[6] = non-inactivating protocol, pre-pulse −100 mV (resting block), read-out: IC50 at −100 mV
[7] = pulse frequency 0.2 Hz (frequency dependent block), read-out: IC50 at 0.2 Hz
[8] = inactivation protocol (voltage-dependent block), read-out: IC50 at −80 mV

T2 sequence (O43497 whole entry): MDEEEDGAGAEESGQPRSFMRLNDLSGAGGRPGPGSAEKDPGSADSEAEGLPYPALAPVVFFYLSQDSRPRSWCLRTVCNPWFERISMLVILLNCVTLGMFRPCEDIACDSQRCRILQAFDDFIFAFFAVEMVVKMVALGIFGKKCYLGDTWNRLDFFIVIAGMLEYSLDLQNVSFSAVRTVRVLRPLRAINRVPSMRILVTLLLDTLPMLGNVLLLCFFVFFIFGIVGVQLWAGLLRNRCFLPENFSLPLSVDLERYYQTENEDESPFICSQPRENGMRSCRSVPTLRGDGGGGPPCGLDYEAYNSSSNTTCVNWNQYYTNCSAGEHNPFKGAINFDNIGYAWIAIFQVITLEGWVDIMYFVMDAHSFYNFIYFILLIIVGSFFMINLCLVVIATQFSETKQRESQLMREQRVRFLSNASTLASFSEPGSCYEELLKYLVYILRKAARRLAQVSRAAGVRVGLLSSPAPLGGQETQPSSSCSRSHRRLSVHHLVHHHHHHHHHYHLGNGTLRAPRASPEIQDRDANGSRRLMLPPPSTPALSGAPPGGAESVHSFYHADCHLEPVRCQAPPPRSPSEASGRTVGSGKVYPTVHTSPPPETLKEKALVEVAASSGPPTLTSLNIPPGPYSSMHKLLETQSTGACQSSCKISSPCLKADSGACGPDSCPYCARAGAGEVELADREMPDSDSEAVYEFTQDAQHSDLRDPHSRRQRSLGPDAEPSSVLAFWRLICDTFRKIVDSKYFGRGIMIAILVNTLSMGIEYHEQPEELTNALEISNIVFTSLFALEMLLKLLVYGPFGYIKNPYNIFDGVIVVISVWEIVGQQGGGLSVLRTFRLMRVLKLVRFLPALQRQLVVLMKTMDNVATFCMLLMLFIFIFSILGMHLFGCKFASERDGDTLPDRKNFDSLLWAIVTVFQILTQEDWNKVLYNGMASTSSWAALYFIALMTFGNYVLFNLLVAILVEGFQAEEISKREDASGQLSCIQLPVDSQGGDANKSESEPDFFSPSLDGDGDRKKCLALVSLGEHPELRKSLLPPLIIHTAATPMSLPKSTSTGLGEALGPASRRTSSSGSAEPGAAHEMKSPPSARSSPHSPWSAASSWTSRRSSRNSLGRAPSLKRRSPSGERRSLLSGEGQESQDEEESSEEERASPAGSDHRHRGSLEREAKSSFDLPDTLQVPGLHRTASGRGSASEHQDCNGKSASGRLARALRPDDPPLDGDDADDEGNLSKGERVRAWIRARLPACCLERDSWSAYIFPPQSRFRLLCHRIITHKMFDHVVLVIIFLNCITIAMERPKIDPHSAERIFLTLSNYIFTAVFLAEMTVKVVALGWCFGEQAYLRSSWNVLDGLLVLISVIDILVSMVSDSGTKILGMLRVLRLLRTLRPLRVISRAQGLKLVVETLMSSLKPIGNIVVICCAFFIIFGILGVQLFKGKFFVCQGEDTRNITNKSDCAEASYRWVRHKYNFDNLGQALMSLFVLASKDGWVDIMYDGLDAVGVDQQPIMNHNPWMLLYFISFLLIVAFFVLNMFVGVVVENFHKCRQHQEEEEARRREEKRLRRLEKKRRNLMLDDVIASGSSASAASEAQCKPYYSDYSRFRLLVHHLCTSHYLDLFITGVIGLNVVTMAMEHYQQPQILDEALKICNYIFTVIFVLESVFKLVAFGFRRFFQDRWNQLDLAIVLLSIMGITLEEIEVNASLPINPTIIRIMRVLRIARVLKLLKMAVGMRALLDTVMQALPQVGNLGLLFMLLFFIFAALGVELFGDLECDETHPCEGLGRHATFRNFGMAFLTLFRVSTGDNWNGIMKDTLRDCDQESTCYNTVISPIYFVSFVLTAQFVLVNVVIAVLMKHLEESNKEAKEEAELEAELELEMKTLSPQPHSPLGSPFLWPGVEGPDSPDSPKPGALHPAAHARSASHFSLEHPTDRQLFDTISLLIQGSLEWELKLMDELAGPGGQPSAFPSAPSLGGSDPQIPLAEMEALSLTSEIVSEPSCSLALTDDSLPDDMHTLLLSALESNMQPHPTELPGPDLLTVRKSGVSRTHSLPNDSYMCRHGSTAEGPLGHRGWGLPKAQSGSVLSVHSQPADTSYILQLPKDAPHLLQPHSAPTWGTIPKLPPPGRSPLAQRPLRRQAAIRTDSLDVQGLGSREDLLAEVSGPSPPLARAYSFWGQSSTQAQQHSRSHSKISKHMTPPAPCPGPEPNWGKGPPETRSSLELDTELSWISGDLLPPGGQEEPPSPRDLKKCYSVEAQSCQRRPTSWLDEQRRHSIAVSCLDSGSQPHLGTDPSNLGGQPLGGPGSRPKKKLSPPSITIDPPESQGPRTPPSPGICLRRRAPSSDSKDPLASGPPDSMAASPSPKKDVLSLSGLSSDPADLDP
T1 sequence (Q02294 whole entry): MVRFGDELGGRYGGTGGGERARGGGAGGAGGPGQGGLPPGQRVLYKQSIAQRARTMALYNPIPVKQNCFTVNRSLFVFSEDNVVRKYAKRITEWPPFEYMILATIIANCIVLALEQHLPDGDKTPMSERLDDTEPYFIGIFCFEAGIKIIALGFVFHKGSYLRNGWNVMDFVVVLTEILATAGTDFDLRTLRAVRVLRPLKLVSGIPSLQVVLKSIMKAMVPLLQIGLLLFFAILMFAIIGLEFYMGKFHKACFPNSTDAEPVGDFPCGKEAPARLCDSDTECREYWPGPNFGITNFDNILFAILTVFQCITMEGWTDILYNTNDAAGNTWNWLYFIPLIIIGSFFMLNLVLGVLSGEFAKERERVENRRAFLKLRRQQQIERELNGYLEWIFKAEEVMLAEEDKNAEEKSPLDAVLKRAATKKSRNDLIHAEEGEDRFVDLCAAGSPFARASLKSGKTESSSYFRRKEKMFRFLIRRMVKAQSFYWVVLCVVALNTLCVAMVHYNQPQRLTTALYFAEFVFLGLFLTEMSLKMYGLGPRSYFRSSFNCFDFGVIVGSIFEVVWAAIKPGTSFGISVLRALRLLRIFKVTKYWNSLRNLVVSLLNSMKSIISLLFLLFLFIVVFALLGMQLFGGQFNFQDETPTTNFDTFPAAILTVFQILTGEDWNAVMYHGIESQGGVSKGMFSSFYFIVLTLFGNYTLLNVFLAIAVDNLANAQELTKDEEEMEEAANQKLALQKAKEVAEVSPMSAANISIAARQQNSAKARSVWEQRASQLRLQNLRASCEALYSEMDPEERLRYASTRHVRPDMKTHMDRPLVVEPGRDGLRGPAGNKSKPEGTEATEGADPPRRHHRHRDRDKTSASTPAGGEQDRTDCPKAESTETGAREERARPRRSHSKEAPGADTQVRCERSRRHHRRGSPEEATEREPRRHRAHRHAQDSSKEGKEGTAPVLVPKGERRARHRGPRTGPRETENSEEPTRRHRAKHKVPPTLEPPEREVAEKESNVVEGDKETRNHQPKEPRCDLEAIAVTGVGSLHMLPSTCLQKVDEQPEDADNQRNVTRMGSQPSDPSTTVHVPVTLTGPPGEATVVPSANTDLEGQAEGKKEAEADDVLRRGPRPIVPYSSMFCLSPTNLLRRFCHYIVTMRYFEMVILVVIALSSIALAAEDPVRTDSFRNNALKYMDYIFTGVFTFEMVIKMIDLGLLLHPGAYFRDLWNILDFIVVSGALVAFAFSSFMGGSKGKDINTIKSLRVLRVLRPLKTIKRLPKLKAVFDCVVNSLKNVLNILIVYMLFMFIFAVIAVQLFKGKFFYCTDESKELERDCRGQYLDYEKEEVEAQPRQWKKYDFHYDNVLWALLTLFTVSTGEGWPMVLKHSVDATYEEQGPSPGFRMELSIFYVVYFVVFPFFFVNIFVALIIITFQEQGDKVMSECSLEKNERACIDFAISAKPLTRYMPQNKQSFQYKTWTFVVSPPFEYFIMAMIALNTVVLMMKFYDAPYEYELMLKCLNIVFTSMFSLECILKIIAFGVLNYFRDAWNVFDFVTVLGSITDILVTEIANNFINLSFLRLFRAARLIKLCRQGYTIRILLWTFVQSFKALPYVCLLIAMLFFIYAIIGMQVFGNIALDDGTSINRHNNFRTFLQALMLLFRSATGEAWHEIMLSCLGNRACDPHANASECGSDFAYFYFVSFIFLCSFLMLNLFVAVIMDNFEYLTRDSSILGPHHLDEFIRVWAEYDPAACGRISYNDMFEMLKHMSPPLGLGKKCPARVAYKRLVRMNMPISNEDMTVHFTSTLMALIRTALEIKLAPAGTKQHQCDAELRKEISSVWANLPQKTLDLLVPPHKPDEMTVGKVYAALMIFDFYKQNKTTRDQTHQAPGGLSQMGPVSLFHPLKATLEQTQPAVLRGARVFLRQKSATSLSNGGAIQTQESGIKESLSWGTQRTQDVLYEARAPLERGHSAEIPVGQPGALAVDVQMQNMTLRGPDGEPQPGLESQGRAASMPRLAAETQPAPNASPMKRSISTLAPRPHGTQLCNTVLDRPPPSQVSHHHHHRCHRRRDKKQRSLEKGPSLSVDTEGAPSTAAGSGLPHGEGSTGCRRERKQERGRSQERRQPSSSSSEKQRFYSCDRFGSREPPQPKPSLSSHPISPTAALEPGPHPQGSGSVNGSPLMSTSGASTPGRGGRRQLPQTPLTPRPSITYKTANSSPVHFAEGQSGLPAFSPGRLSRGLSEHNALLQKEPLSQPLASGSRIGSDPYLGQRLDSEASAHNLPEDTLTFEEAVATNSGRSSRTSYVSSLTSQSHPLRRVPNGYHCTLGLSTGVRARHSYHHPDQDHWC

Row | Compound | IC50 [2, 5] [µM] | IC50 [3, 6] [µM] | IC50 [2, 7] [µM] | IC50 [3, 8] [µM] | IC50 at −100 mV ([3]; non-inactivating protocol, pre-pulse −100 mV (resting block)) | selectivity for N-type over L-type channels [1] | selectivity for N-type over P/Q-type channels [4] | Maximum Possible Effect ± SEM, Phase I (rat formalin model) [%] | Maximum Possible Effect ± SEM, Phase II (rat formalin model) [%] | Maximum Possible Effect ± SEM, Phase IIA (rat formalin model) [%]
1 | CC(C)(C)c1cc(C(=O)NCC2CCN(C(=O)CCCCC(c3ccc(F)cc3)c3ccc(F)cc3)C2)cc(C(C)(C)C)c1 (stereo not shown) [Compound P17] | 0.06 | 0.029 |  |  |  | greater than 75 fold | approximately 31 fold | 74 ± 8 | 84 ± 9 | 79 ± 9
2 | O=C(CC(c1ccccc1)c1ccccc1)N1CCC(CNC(c2ccccc2)c2ccccc2)C1 (stereo not shown) [Compound P2] | 1.07 | 0.326 | 0.84 | 0.052 |  |  |  |  |  | 
3 | COc1c(C(C)(C)C)cc(C(=O)NCC2CCN(C(=O)CCCCC(c3ccc(F)cc3)c3ccc(F)cc3)C2)cc1C(C)(C)C (stereo not shown) [Compound P13] |  | 0.0015 |  | 0.0007 |  |  |  | 85 ± 9 | 86 ± 7 | 86 ± 5
4 | COc1cc(C(=O)N2CCC(CNC(=O)CCCCC(c3ccc(F)cc3)c3ccc(F)cc3)C2)cc(OC)c1OC (stereo not shown) [Compound P5] | 0.059 |  |  |  | No effect |  |  |  |  | 
5 | O=C(NCC1CCN(C(=O)CCCCC(c2ccc(F)cc2)c2ccc(F)cc2)C1)c1cc(Br)c(O)c(Br)c1 (stereo not shown) [Compound P15] | > 1 | > 10 |  |  |  |  |  |  |  | 

Now from value to molecule, other results behind:

Row | IC50 [2, 5] [µM] | IC50 [3, 6] [µM] | IC50 [2, 7] [µM] | IC50 [3, 8] [µM] | IC50 at −100 mV ([3]; non-inactivating protocol, pre-pulse −100 mV (resting block)) | Compound | selectivity for N-type over L-type channels [1] | selectivity for N-type over P/Q-type channels [4] | Maximum Possible Effect ± SEM, Phase I (rat formalin model) [%] | Maximum Possible Effect ± SEM, Phase II (rat formalin model) [%] | Maximum Possible Effect ± SEM, Phase IIA (rat formalin model) [%]
6 | 0.38 | 0.012 | 0.21 |  |  | O=C(NCC1CCN(C(=O)CCCCC(c2ccc(F)cc2)c2ccc(F)cc2)C1)c1cc(C(F)(F)F)cc(C(F)(F)F)c1 (stereo not shown) [Compound P24] |  |  | 66 ± 11 | 38 ± 7 | 20 ± 4
7 | 0.263 | 0.137 | 0.236 | 0.042 |  | O=C(CC(c1ccccc1)c1ccccc1)NCC1CCN(C(c2ccccc2)c2ccc(Cl)cc2)C1 (stereo not shown) [Compound P26] |  |  |  |  | 
8 | 0.179 | 0.012 | 0.257 | 0.003 |  | O=C(CC(c1ccccc1)c1ccccc1)NCC1CCN(C(c2ccccc2)c2ccc(C(F)(F)F)cc2)C1 (stereo not shown) [Compound P39] |  |  |  |  | 
9 | 0.136 | 0.018 | 0.089 | 0.008 |  | O=C(NCC1CCN(C(=O)CCCCC(c2ccc(F)cc2)c2ccc(F)cc2)C1)c1cc(C(F)(F)F)cc(C(F)(F)F)c1 (stereo not shown) [Compound P49] |  |  |  |  | 
10 | 0.225 | 0.115 | 0.081 | 0.028 |  | CN(Cc1cc(C(F)(F)F)cc(C(F)(F)F)c1)CC1CCN(C(=O)CCCCC(c2ccc(F)cc2)c2ccc(F)cc2)C1 (stereo not shown) [Compound P57] |  |  |  |  | 
11 | 0.057 | 0.618 | 0.045 | 0.227 |  | CN(C(=O)CN(CC(=O)N(C)c1ccccc1)CC1CCN(C(c2ccccc2)c2ccccc2)C1)c1ccccc1 (stereo not shown) [Compound P60] |  |  |  |  | 
